Data on three compounds can be found in patent US20090180956A1, “DIAGNOSTIC FOR EVALUATING GASTRIC EVACUATION FUNCTION AND/OR SMALL INTESTINAL ABSORPTION FUNCTION” (priority 2006, published 2009).

Read-outs that look alike come from different tables or passages of the source.

For data set [1] the following is noted: 2 mg/ml/kg into the duodenum. The protocol:
Overnight-fasted Wistar male rats (8 week-old; Nippon Charles River) were subjected to a laparotomy under anesthesia and treated as follows: (1) ligated at 3 cm from the pylorus (n=1), (2) ligated at 6 cm from the pylorus (n=1), and (3) not ligated (no treatment) (n=2).
[1,4-^13C]-succinic acid (ICON) was administered into the duodenum upstream of the ligation at 2 mg/ml/kg. The breath after the administration was collected.
(§1) Briefly, the breath was collected at a rate of about 100 to 300 ml/min using a stroke pump (Variable Stroke Pump VS-500; Shibata Kagaku Kogyo), and the CO2 concentration therein was maintained at about 3%. A Perma Pure Drier (MD-050-12P; Perma Pure INC.) was set between the rat holder and the stroke pump to remove moisture from the breath. When the CO2 concentration was stabilized, the rat under anesthesia was subjected to a laparotomy. After ligation of the pylorus, [1,4-^13C]-succinic acid solution was injected into the duodenum with an injection syringe (1 ml) to thereby achieve administration into the duodenum. A breath sample ([…]) collected with the syringe was sealed in a vacuum vial (10 ml) and subjected to automated analysis by GC-MS (Breath MAT) [FinniganMAT]. Δ^13C (‰) was calculated from δ^13C values which are ^13C values of the breath sample (i.e. differences from the standard substance PDB) using the following formula.
Δ^13C (‰)=(δ^13C)t min−(δ^13 C) 0 min (Formula 1)
• Apparatus: Breath MAT plus (Finnigan) • Carrier gas: He • Measured ions: m/z=44, 45, 46

The conditions of data set [2]: 4 mg/ml/kg femoral vein.
Method: (§2) Briefly, STZ was administered to 2-day postnatal rats subcutaneously at a dose of 90 mg/kg. STZ was dissolved in citrate buffer (pH 4.5) in advance, and administration was completed within 5 minutes after the dissolving. Two days thereafter, a blood sample was collected from the heart and subjected to measurement of casual plasma glucose with Terumo Mediace (blood glucose measuring set). Individuals showing a level of 275 mg/dl or more were selected.
(§3) The time course of the increase ratio of ^13C concentration (Δ^13C (‰)) in exhaled CO2 after administration was examined for 20 minutes, and plotted every 5 minutes.
For data set [3] the following is noted: 2 mg/ml/kg into the duodenum. As to the method: as §1
Falling out of small intestinal villi was induced in Wistar male rats (9 week-old; n=4; Nippon Charles River) by repeatedly injecting injectable methotrexate (MTX; Takeda Chemical Industries) dissolved in physiological saline between the back and the skull subcutaneously at 2.5 mg/kg/day (see J. Nutr. Vol. 126, p. 2519 (1996); Scand. J. Gastroenterol. Vol. 39 p. 1015 (2004)). The conditions of the repeated administration were 3 day administration, 2 day interval and 3 day administration (total administration period: 6 days) (MTX administration group; n=4). Non-administration group (n=2) was also tested as control group.
On day 9 after the start of MTX administration, [1,4-^13C]-succinic acid (ICON) was administered into the duodenum of overnight-fasted rats under anesthesia at 2 mg/ml/kg to perform a breath test.
The source holds these as a separate data set.

Data set [4] is described as follows: 13C-labeled sodium acetate breath test, diabetic model rats (nSTZ group) versus control group. The settings on record: 10 mg/ml/kg femoral vein.
Method: as §2, §3
The conditions of data set [5]: rat, in vivo, 2000 mg/kg; cited from earlier work.

For `O=[13C](O)CC[13C](=O)O` [[1,4-^13C]-succinic acid], the “increase ratio of 13C concentration (Δ13C) in exhaled CO2” value (“increase ratio … (Δ13C) in exhaled CO2” for short) in data set [1] (not ligated rats, at 6 minutes) is given as 130 ‰; in data set [1] (not ligated rats, at 15 minutes) it was 95 ‰; in data set [1] (rat ligated at 3 cm from the pylorus, at 4 minutes), 14 ‰; in data set [1] (rat ligated at 3 cm from the pylorus, at 6 minutes) it was 30 ‰; in data set [1] (rat ligated at 3 cm from the pylorus, at 16 minutes), 71 ‰; in data set [1] (rat ligated at 6 cm from the pylorus, at 4 minutes), 33 ‰. The “increase ratio … (Δ13C) in exhaled CO2” value in data set [1] (rat ligated at 6 cm from the pylorus, at 6 minutes) is on record as 57 ‰; in data set [1] (rat ligated at 6 cm from the pylorus, at 16 minutes), 96 ‰; in data set [2] (control group, at 5 minutes), 193±20 ‰; in data set [2] (control group, at 20 minutes) it was 99±4 ‰; in data set [2] (nSTZ group, at 5 minutes) it was 202±28 ‰; in data set [2] (nSTZ group, at 20 minutes), 93±4 ‰. Moreover, the “increase ratio … (Δ13C) in exhaled CO2” value in data set [3] (MTX administration group, at 15 minutes) is recorded as 68±37 ‰; in data set [3] (control group (MTX non-administration), at 10 minutes), 154 ‰; in data set [3] (control group (MTX non-administration), at 20 minutes), 81 ‰. Besides, in data set [2] (20 minutes breath test), the “difference in Δ13C between control group and nSTZ group” value is on record as “no difference was observed”.
Turning to `C[13C](=O)[O-].[Na+]` [[1-^13C]-sodium acetate], the “increase ratio … (Δ13C) in exhaled CO2” value in data set [4] (control group, at 5 minutes) was 154±11 ‰; in data set [4] (control group, at 20 minutes) it was 153±5 ‰; in data set [4] (nSTZ group, at 5 minutes) it was 214±30 ‰; in data set [4] (nSTZ group, at 20 minutes), 133±2 ‰. The “difference in Δ13C between control group and nSTZ group” value in data set [4] (values at 5 minutes and at 20 minutes) is “Significant difference (p<0.005)”.
On to `O=C(O)CCC(=O)O` [disodium succinate hexahydrate], for which the “abnormalities in single administration toxicity test” value in data set [5] is reported as “does not cause abnormalities”.
